# System: kokumi/umami taste
# Assay: Evaluation of alkylpyridines: taste panel of 8 trained panelists, samples in 0.3% aqueous NaCl
# Assay type: in vivo
# Conditions: 10 ppm in 0.3% aqueous NaCl; scale 0 (no effect) to 10 (extremely strong kokumi/umami effect)
# Description: Alkylpyridines shown in the following table were prepared by firstly being diluted into propylene glycol solvent in order to provide a 10% solution of the alkylpyridine. Each solution was then diluted using a 0.3% aqueous solution of NaCl, heated if necessary to achieve better dissolution, to a concentration of between 10 ppm and 30 ppm of the alkylpyridine. The samples were then stored at ambient temperature.
# A panel consisting of 8 trained panelists evaluated the samples for taste properties on a scale of 0 to 10 where 0 denoted no kokumi/umami effect and 10 denoted extremely strong kokumi/umami effect.
row,SMILES,Kokumi/Umami taste intensity
1,"CCc1ccccn1 [2-Ethylpyridine, reference compound]",0
2,CCCCCCc1ccccn1 [2-Hexylpyridine],7
3,"CCCc1ccccn1 [2-Propylpyridine, reference compound]",0
4,"CCCCCCCc1ccccn1 [Compound of ex. 1, 2-heptylpyridine]",7
5,"CCCCCCCCc1ccccn1 [Compound of ex. 2, 2-octylpyridine]",2
6,"CCCCCCCCCc1ccccn1 [Compound of ex. 3, 2-nonylpyridine]",1
7,"CCCCCCCCCCCc1ccccn1 [Compound of ex. 4, 2-undecylpyridine]",0
8,"CCCCCCCCCCCCc1ccccn1 [Compound of ex. 5, 2-dodecylpyridine]",0
9,"CCCCCc1cc(C)ccn1 [Compound of ex. 6, 4-methyl-2-pentylpyridine]",0

# Same assay, conditions: 20 ppm in 0.3% aqueous NaCl; scale 0 (no effect) to 10 (extremely strong kokumi/umami effect)
row,SMILES,Kokumi/Umami taste intensity
1,"Cc1ccccn1 [2-picoline, reference compound]",0

# Same assay, conditions: 30 ppm in 0.3% aqueous NaCl; scale 0 (no effect) to 10 (extremely strong kokumi/umami effect)
row,SMILES,Kokumi/Umami taste intensity
1,"c1ccncc1 [Pyridine, reference compound]",0

# — US20110020518A1, “TASTE MODIFYING PRODUCT” (priority 2008, published 2011)
